As a reminder, the CC50 is the concentration giving 50% cytotoxicity. For orientation: melting point means the temperature, or range, at which the solid turns liquid.

Structures are written as SMILES. pIC50: −log10 of the molar value. Structures can show the parent of a compound that is named as a salt. Bounds are passed on as bounds.

The test system of one data set is HIV-infected MT-4 cells. Kind of data set: Inhibition of the HIV-induced cytopathic effect in MT-4 cells (MTT). Format: cell-based. The conditions noted are these: for SI (selectivity index, ratio of CC50 to IC50): CC50/IC50 in MT-4 cells; for pIC50: Human immunodeficiency virus 1, MT4, read-out: IC50 (50% inhibitory concentration; dose achieving 50% protection), HIV-infected MT-4 cells, MTT, OD 540 nm. The procedure: (§1) A rapid, sensitive and automated assay procedure was used for the in vitro evaluation of anti-HIV agents. An […] T4-cell line, MT-4, which was previously shown (Koyanagi et al., Int. J. Cancer, 36, 445-451, 1985) to be highly susceptible to and permissive for HIV infection, served as the target cell line. Inhibition of the HIV-induced cytopathic effect was used as the end point. The viability of both HIV- and mock-infected cells was assessed spectrophotometrically via the in situ reduction of 3-(4,5-dimethylthiazol-2-yl)-2,5-diphenyltetrazolium bromide (MTT). […] The percent protection achieved by the compound in HIV-infected cells was calculated by the following formula:
(§2) [formula] whereby (ODT)HIV is the optical density measured with a given concentration of the test compound in HIV-infected cells; (ODC)HIV is the optical density measured for the control untreated HIV-infected cells; (ODC)MOCK is the optical density measured for the control untreated mock-infected cells; all optical density values were determined at 540 nm. […] The ratio of CC50 to IC50 was defined as the selectivity index (SI).
(Damage to the host cells serves as the signal in cytopathic effect assays.)

The nature of data set [1]: Cytotoxicity in mock-infected MT-4 cells (MTT). Format: cell-based. The settings on record: human, OD 540 nm. The protocol: as §1, §2

Turning to `N#Cc1ccc(Nc2nc(Cc3c(Cl)cccc3Cl)nc(N3CC(O)CO3)n2)cc1` (stereo not shown) [Compound 11], in the data set with HIV-infected MT-4 cells, the “SI (selectivity index, ratio of CC50 to IC50)” value was determined as 25138 and the pIC50 was 8.60. This molecule also returned a CC50 in data set [1] of 63100 nM.
`Cc1cc(C#N)cc(C)c1Nc1cc(C(F)(F)F)nc(Nc2ccc(C#N)cc2)n1` [Compound 33, 4-[[[6-trifluoromethyl-2-(4-cyanophenylamino)]-4-pyrimidinyl]amino]-3,5-dimethylbenzonitrile] displayed a melting point of 249 to 251 °C. Also, in the data set on HIV-infected MT-4 cells, the “SI (selectivity index, ratio of CC50 to IC50)” value is 1586 and the pIC50 is 8.50. In data set [1], this molecule showed a 50% cytotoxic concentration (CC50) of 5010 nM.
Turning to `NC(=O)c1ccc(Nc2nc(Cc3c(Cl)cccc3Cl)nc(C(N)=O)n2)cc1` [Compound 40], the melting point was 287 to 295 °C.
In turn, `C[S+]([O-])c1nc(Cc2c(Cl)cccc2Cl)nc(Nc2ccc(C#N)cc2)n1` (stereo not shown) [Compound 8] yielded a melting point of 219 to 221 °C.
Consider `COCc1nc(Nc2ccc(C#N)cc2)nc(Oc2c(C)cc(C#N)cc2C)c1Br` [Compound 12, 4-[[[5-bromo-4-(4-cyano-2,6-dimethylphenoxy)-6-methoxymethyl]-2-pyrimidinyl]amino]benzonitrile], for which the melting point was 198 to 199 °C. Besides, in the data set on HIV-infected MT-4 cells, the “SI (selectivity index, ratio of CC50 to IC50)” value is above 25000 and the pIC50 is 8.40. The same molecule gave a CC50 in data set [1] above 100000 nM.
`N#Cc1ccc(Nc2nc(Cc3c(Cl)cccc3Cl)nc(N3C(=O)CCCC3=O)n2)cc1` [Compound 37] displayed a melting point of 278 to 282 °C.
The same measure, in the same setting: the figure for `N#Cc1ccc(Nc2nc(Cl)nc(Cc3c(Cl)cccc3Cl)n2)cc1` [Compound 1, 4-[[4-chloro-6-[(2,6-dichlorophenyl)methyl]-1,3,5-triazin-2-yl]amino]-benzonitrile] is 243 to 244 °C.
Consider `N#Cc1ccc(Nc2nc(CO)cc(Oc3c(Br)cc(C#N)cc3Br)n2)cc1` [Compound 14], for which, in the data set on HIV-infected MT-4 cells, the “SI (selectivity index, ratio of CC50 to IC50)” value is 2500 and the pIC50 is 8.40. In data set [1], this molecule had a cytotoxic concentration (CC50) above 10000 nM.
`Cc1cc(C#N)cc(C)c1Oc1nc(Cl)nc(Nc2ccc(C#N)cc2)n1` [Compound 60] displayed a melting point of 260 to 265 °C.
Regarding `N#Cc1ccc(Nc2nc(S)nc(Cc3c(Cl)cccc3Cl)n2)cc1` [Compound 6], the melting point was in the range of 254 to 255 °C.
As to `COC(=O)c1cc(Nc2c(C)cc(C)cc2C)nc(Nc2ccc(C#N)cc2)n1` [Compound 62], in the data set on HIV-infected MT-4 cells, the “SI (selectivity index, ratio of CC50 to IC50)” value is on record as 1261 and the pIC50 was 8.20. This molecule showed a CC50 in data set [1] of 7940 nM.
Taken in the same sequence, the figures for `N#Cc1ccc(Nc2nc(CO)c(Br)c(Oc3c(Br)cc(C#N)cc3Br)n2)cc1` [Compound 16, 4-[[[5-bromo-4-(4-cyano-2,6-dibromophenoxy)-6-hydroxymethyl]2-pyrimidinyl]amino]benzonitrile] were above 39841, 7.60 and above 100000 nM.
The corresponding values for `COc1ccc(Nc2nc(Oc3c(C)cc(C#N)cc3C)cc(C(=O)N(C)C)n2)cn1` [Compound 65] are 1000, 7.10 and 79400 nM.
Take `N#Cc1ccc(Nc2nc(Cc3c(Cl)cccc3Cl)cc(-n3ccnc3)n2)cc1` [Compound 39]: the melting point was 275 to 285 °C.
In the case of `CNC(=O)c1cc(Nc2c(C)cc(C)cc2C)nc(Nc2ccc(C#N)cc2)n1` [Compound 63], in the data set on HIV-infected MT-4 cells, the “SI (selectivity index, ratio of CC50 to IC50)” value is reported as 7946 and the pIC50 was 8.30. The molecule further displayed a 50% cytotoxic concentration (CC50) in data set [1] of 39800 nM.
Molecule `C=CCONc1nc(Cc2c(Cl)cccc2Cl)nc(Nc2ccc(C#N)cc2)n1` (as salt: trifluoroacetate) [Compound 43] registered a melting point of 225 to 227 °C.
Turning to `COc1ccc(Nc2nc(Oc3c(C)cc(C#N)cc3C)cc(C(N)=O)n2)cn1` [Compound 56], in the data set on HIV-infected MT-4 cells, the “SI (selectivity index, ratio of CC50 to IC50)” value came out at 1585 and the pIC50 was 7.20. The CC50 in data set [1] was above 100000 nM.
Taken in the same sequence, the figures for `Cc1cc(C#N)cc(C)c1Oc1nc(Nc2ccc(C#N)cc2)nc(CO)c1Br` [Compound 13, 4-[[[5-bromo-4-(4-cyano-2,6-dimethylphenoxy)-6-hydroxymethyl]-2-pyrimidinyl]amino]benzonitrile] were above 25000, 8.40 and above 100000 nM.
Taken in the same sequence, the figures for `Cc1cc(C)c(Nc2nc(Nc3ccc(C#N)cc3)nc(C(N)=O)n2)c(C)c1` [Compound 19, 6-[(4-cyanophenyl)amino]-4-[(2,4,6-trimethylphenyl)amino]-1,3,5-triazine-2-carboxamide] were 3162, 8.90 and 3980 nM.
For the molecule `CNCc1nc(Nc2ccc(C#N)cc2)nc(Oc2c(C)cc(C#N)cc2C)c1Br` [Compound 74], the melting point was in the range of 223 to 224 °C.
Regarding `C=CCONc1nc(Cc2c(Cl)cccc2Cl)nc(Nc2ccc(C#N)cc2)n1` [Compound 43], in the data set on HIV-infected MT-4 cells, the “SI (selectivity index, ratio of CC50 to IC50)” value stood at 3981 and the pIC50 is 7.80. In data set [1], this molecule displayed a CC50 of 63100 nM.
In turn, `N#Cc1ccc(Nc2nc(Cc3c(Cl)cccc3Cl)nc(N3CC(O)CO3)n2)cc1` (stereo not shown) (as salt: trifluoroacetate) [Compound 11] returned a melting point of 175 °C.
Consider `COC(=O)c1cc(Oc2c(C)cc(C#N)cc2C)nc(Nc2ccc(C#N)cc2)n1` [Compound 71], for which the melting point was 258 to 259 °C (dec.). Further, in the data set with HIV-infected MT-4 cells, the “SI (selectivity index, ratio of CC50 to IC50)” value is above 3984 and the pIC50 was 7.60. The molecule also registered a 50% cytotoxic concentration (CC50) in data set [1] above 100000 nM.
Take `Cc1cc(C)c(Nc2cc(C(=O)N(C)C)nc(Nc3ccc(C#N)cc3)n2)c(C)c1` [Compound 66]: in the data set with HIV-infected MT-4 cells, the “SI (selectivity index, ratio of CC50 to IC50)” value is 19950 and the pIC50 was 8.80. For the same molecule, the CC50 in data set [1] was 31600 nM.
For the molecule `COc1nc(Cc2c(Cl)cccc2Cl)nc(Nc2ccc(C#N)cc2)n1` [Compound 9], the melting point lay within 198 to 199 °C. Moreover, in the data set with HIV-infected MT-4 cells, the “SI (selectivity index, ratio of CC50 to IC50)” value is on record as above 10000 and the pIC50 is 8.00. Besides, in data set [1], the CC50 was above 100000 nM.
Taken in the same sequence, the figures for `N#Cc1ccc(Nc2nc(Cc3c(Cl)cccc3Cl)nc(N3C(=O)COCC3=O)n2)cc1` [Compound 4] were 268 to 269 °C, 25197, 8.80 and 39800 nM.
On to `COCc1cc(Nc2cc(C)c(F)cc2Cl)nc(Nc2ccc(C#N)cc2)n1` [Compound 3], for which the melting point was 213 to 214 °C. In addition, in the data set with HIV-infected MT-4 cells, the “SI (selectivity index, ratio of CC50 to IC50)” value was above 1996 and the pIC50 was 7.30. The molecule further registered a CC50 in data set [1] above 100000 nM.
The molecule `N#Cc1ccc(Nc2nc(O)nc(Cc3c(Cl)cccc3Cl)n2)cc1` [Compound 10] registered a melting point above 300 °C.
For `N#Cc1ccc(Nc2nc(C#N)nc(Cc3c(Cl)cccc3Cl)n2)cc1` [Compound 5], the melting point was 221 to 230 °C. In the data set on HIV-infected MT-4 cells, the “SI (selectivity index, ratio of CC50 to IC50)” value was determined as 501 and the pIC50 was 7.70. In data set [1], this molecule displayed a CC50 of 10000 nM.
Regarding `N#Cc1ccc(Nc2nc(Cc3c(Cl)cccc3Cl)nc(C(N)=O)n2)cc1` [Compound 38], the melting point lay within 262 to 263 °C. Also, in the data set on HIV-infected MT-4 cells, the “SI (selectivity index, ratio of CC50 to IC50)” value is on record as above 39841 and the pIC50 was 8.60. This molecule returned a CC50 in data set [1] above 100000 nM.
As for `COCc1cc(Oc2c(C)cc(C#N)cc2C)nc(Nc2ccc(C#N)cc2)n1` [Compound 2], the melting point was in the range of 203 to 204 °C. Also, in the data set on HIV-infected MT-4 cells, the “SI (selectivity index, ratio of CC50 to IC50)” value was determined as 31621 and the pIC50 was 8.80. In data set [1], this molecule displayed a CC50 of 50100 nM.
As for `N#Cc1ccc(Nc2nc(Cc3c(Cl)cccc3Cl)nc(-n3[nH]nnc3=N)n2)cc1` [Compound 46], the melting point is 302 to 304 °C.
Turning to `Cc1cc(C)c(Nc2cc(C(N)=O)nc(Nc3ccc(C#N)cc3)n2)c(C)c1` [Compound 61, 2-[(4-cyanophenyl)amino]-6-[(2,4,6-trimethylphenyl)amino]-4-pyrimidine carboxamide], in the data set on HIV-infected MT-4 cells, the “SI (selectivity index, ratio of CC50 to IC50)” value worked out at 19968 and the pIC50 is 8.60. Moreover, half-maximal cytotoxicity in data set [1] (CC50) was put at 50100 nM.
Taken in the same sequence, the figures for `N#Cc1ccc(Nc2nc(Cc3c(Cl)cccc3Cl)nc(N3CCC(=O)O3)n2)cc1` [Compound 35] were 794, 7.20 and 50100 nM.
In turn, `N#Cc1ccc(Nc2nc(F)nc(Cc3c(Cl)cccc3Cl)n2)cc1` [Compound 49] had a melting point of 199 to 201 °C.
`Cc1cc(C)c(Nc2nc(Nc3ccc(C#N)cc3)nc(C(N)=O)c2Br)c(C)c1` [Compound 98, 5-bromo-2-[(4-cyanophenyl)amino]-6-[(2,4,6-trimethylphenyl)amino]-4-pyrimidine carboxamide]: in the data set on HIV-infected MT-4 cells, the “SI (selectivity index, ratio of CC50 to IC50)” value was determined as 15861 and the pIC50 was 8.50. This molecule also registered a CC50 in data set [1] of 50100 nM.
`Clc1cccc(Cl)c1Cc1nc(Nc2ccc(-c3nnn[nH]3)cc2)nc(-c2nnn[nH]2)n1` [Compound 42]: the melting point lay in the range of 249 to 252 °C.
Same read-out and setting: the figure for `N#Cc1ccc(Nc2nc(Cl)nc(Oc3c(Cl)cc(Cl)cc3Cl)n2)cc1` [Compound 72] is 238 to 239 °C; for `Cc1cc(C#N)cc(C)c1Oc1nc(Nc2ccc(C#N)cc2)nc(CCl)c1Br` [Compound 73] it is 238 to 240 °C.

Values taken from patent US7276510B2, “HIV replication inhibitors” (Janssen Pharmaceutica, Inc., priority 2000, dated 2007).
